Assay results from patent US10154673B2, “Method of removing lactose from a solution” (Stellenbosch University, priority 2014, dated 2018).

Legend:
[1] = Competitive activity assay (lactose as inhibitor, ONPG as substrate); type: biochemical; details: for Vmax: ONPG with lactose 6, 16 and 60 mM as competitive inhibitor; for Ki: competitive inhibition by lactose, ONPG as substrate
Description: The protocol for the above activity assay was repeated, but with the addition of lactose as an inhibitor. Lactose was added to final concentration of 6, 16 and 60 mM respectively.
The assay for the activity of β-gal, with lactose as substrate, is relatively complex and generally requires the use of HPLC. It was therefore decided to use a competitive activity assay instead. Lactose was therefore added together with ONPG to determine if the expressed enzymes did have an affinity for the natural substrate. Lactose would compete for the active site with ONPG and therefore the greater the inhibition the higher the affinity of lactose for that particular active site.
The results obtained were analysed with the aid of Michaelis Menten plots and the Ki values for lactose were determined using Graphpad Prism® version 5 for Windows, Graphpad Software, La Jolla Calif. USA.

[2] = ONPG activity assay of purified free β-gal; type: biochemical; details: for Vmax / Km: free enzyme
Description: (§1) Purified β-gal was assayed using a colorimetric activity assay. Both enzymes were assayed at varying substrate concentrations. The assay took place in phosphate buffer (93 mM Sodium phosphate, 1 mM MgCl2, 112 mM β-mercaptoethanol, pH 7.3) with varying amounts of substrate concentration. The assay was performed in a BioTek® PowerWave 340 spectrophotometer at 37° C. for 5 min with a reading taken every 5 s. The buffers were preincubated at 37° C. for 30 min prior to the assay.
The activity needed to be determined for both the wildtype and E537D mutant β-gal prepared for this study, since the addition of the His-tag could influence enzyme activity. The activity of β-gal was determined using the ONPG activity assay. The kinetic parameters (Km and Vmax) were determined using the Michaelis Menten equation and Graphpad Prism® version 5 software for Windows, Graphpad Software, La Jolla Calif. USA.

[3] = Adsorption of β-gal onto Dynabeads (HIPD), BCA protein determination; type: binding; details: room temperature, optimal concentration
Description: To determine the amount (μg) of β-gal that was bound to Dynabeads® (HIPD), a BCA protein assay was performed according to the manufacturer's protocol. A standard curve with BSA was established in a range from 0 to 2 mg/ml. The analysis was performed at 540 nm.
A dilution series of purified β-gal wildtype and E537D mutant was prepared in a concentration range from 0 to 0.4 mg/ml. The dilution series was incubated with the beads (25 μl) for 10 min at 25° C. according to the manufacturer's protocol to ensure optimal adsorption of β-gal onto the beads. The beads were subsequently separated from the solution with a magnet and the supernatant was removed and analysed as described immediately above. The beads were then washed three times in dialysis buffer and the supernatant of the wash steps were also analysed for protein content.
The experimental procedure described above was repeated at 4 and 37° C.
Purified β-gal (wildtype and E537D mutant), was incubated with the beads (25 μl) at room temperature and optimal concentration to ensure maximum binding. The supernatant was removed from the solution at regular time intervals for 10 min. The collected fractions were assayed for protein content as described above. Analysis of β-gal bound to the beads took place with SDS-PAGE and Western blot analyses as outlined above.

[4] = Radioactive lactose binding assay (scintillation counting); details: 0.2 nmol β-gal/mg beads, 0.2 nmol 14C lactose, 5 min
Description: Immobilised β-gal (Wildtype and E537D mutant) (0.2 nmol β-gal/mg beads) was incubated with 0.2 nmol ^14C lactose in buffer (500 mM NaPO4, 300 mM NaCl, 5 mM sodium metabisulphate, 0.2% tween20, pH 8) for 5 min. The immobilised β-gal was then removed from the ^14C lactose solution with a magnet. The original 0.2 nmol C14 solution and the residual supernatant from the binding experiment were analysed with a scintillation counter.

[5] = Partition HPLC analysis of the 14C lactose binding assay; details: for hydrolysis of lactose during the binding experiment: binding assay supernatant, glucose peak at 4 min
Description: […] The immobilised β-gal was then removed from the ^14C lactose solution with a magnet. The original 0.2 nmol C14 solution and the residual supernatant from the binding experiment were analysed with a scintillation counter.
All HPLC analyses were carried out using a Carbohydrate Analysis column (Waters (WAT084038)) and a Radiomatic “Flo-one beta” A-100 radioactive flow detector at ambient temperature. An isochratic mixture of 20:80 water:acetonitrile was used as mobile phase at a flow rate of 2 ml/min. Scintillation fluid was pumped at 6 ml/min for radioactive detection. Retention times of ^14C glucose and ^14C lactose standards were determined separately. This was followed by analysis of the residual supernatant and original ^14C lactose solution from the lactose binding assay.

[6] = ONPG activity assay of immobilised wildtype β-gal; type: biochemical; details: immobilised on Dynabeads, ONPG as substrate
Description: as §1
70 μg β-gal (both E537D mutant and wildtype) were incubated for 10 min at 25° C. on a Vortex Genie 2 mixer (Healthcare technologies, South Africa) with 25 μl Dyanbeads® (HIPD). The immobilised β-gal was collected with the use of a magnet and the residual supernatant was removed for protein analysis. The beads were then washed three times and the wash supernatant was also kept and analysed for protein content.
The activity of the immobilized wildtype β-gal was determined with an ONPG activity assay as described earlier.

Row | Substance | Vmax [1] [µmol/min/mg] | Ki [1] [mM] | activity lower/slower than the wildtype β-gal ([2]; ONPG activity, Vmax ratio) [×] | Vmax ([2]; ONPG as substrate (FIG. 19 B legend)) [μmol/min/protein] | Km ([2]; ONPG as substrate, 37° C.) [µM] | Vmax ([2]; ONPG as substrate, 37° C.) [μmol/min/mg protein] | incubation time for maximum adsorption [3] [min] | percentage binding of 14C lactose from solution [4] | hydrolysis of lactose during the binding experiment [5] | hydrolysis of lactose to glucose ([5]; incubation 20 min) | hydrolysis of lactose to glucose ([5]; incubation an hour (60 min)) | hydrolysis of lactose to glucose ([5]; incubation three hours) | Km [6] [µM] | Vmax [6] [µmol/min/mg] | percentage binding of 14C lactose from solution ([4]; listed as immobilised wildtype enzyme) | Vmax ([2]; ONPG as substrate) [µmol/min/mg]
1 | E537D mutant: N-terminal His-tagged E. coli β-galactosidase with Glu537 replaced by Asp | 2 | 19 | 115 | 2 | 270 | 2 | 5 | – | – | – | – | – | – | – | – | –
2 | immobilised E537D mutant β-gal: His-tagged E537D mutant β-gal immobilised on Dynabeads (HIPD) cobalt magnetic beads | – | – | – | – | – | – | – | approximately 15% | the lactose had not been hydrolysed | relatively small glucose peak appeared | glucose peak had increased significantly | majority of the substrate had been converted to glucose | – | – | – | –
3 | immobilised wildtype β-gal: His-tagged wildtype β-gal immobilised on Dynabeads (HIPD) cobalt magnetic beads | – | – | – | – | – | – | – | not able to bind lactose | hydrolysed the lactose completely | – | – | – | 1530 | 135 | approximately 2% | –
4 | wildtype β-gal: N-terminal His-tagged wildtype E. coli β-galactosidase (lacZ product), expressed and IMAC purified [reference compound] | 230 | 12.4 | – | – | 220 | 230 | 5 | – | – | – | – | – | – | – | – | 230
